Legend:
h5-HT4b = biological target: T1, h5-HT4b (Homo sapiens, UniProt Q13639); experiment: 5HT4 antagonism: [3H]GR113808 binding to membranes of h5-HT4b-HEK 293 clone 9 cells; conditions: displacement of [3H]GR113808 0.1 nM, h5-HT4b-HEK 293 membranes, 30 min at 25° C.; read-out: pIC50 (5HT4 antagonistic data) (converted)
T1 construct: expressed in transfected cells; host or cells: HEK 293 (clone 9), membrane preparation
In short: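 Membranes from h5-HT4b-HEK 293 clone 9 cells were incubated with [3H]GR113808 (0.1 nM as added) in 50 mM HEPES-NaOH pH 7.4 for 30 min at 25 °C. Non-specific binding was defined with a 5-HT4 agonist. Bound radioligand was separated by filtration over PEI-soaked GF/B filters.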

[1] = Metabolic stability: % metabolism after 60 minutes incubation with active liver microsomes; assay type: in vitro ADME; conditions: compound 5 μM, microsomes 1 mg/ml, NADPH-generating system, 60 minutes at 37 degrees Celsius
Method: Sub-cellular tissue preparations were made according to Gorrod et al. (Xenobiotica 5:453-462, 1975) by centrifugal separation after mechanical homogenization of tissue. Liver tissue was rinsed in ice-cold 0.1 M Tris-HCl (pH 7.4) buffer to wash excess blood. Tissue was then blotted dry, weighed and chopped coarsely using surgical scissors. The tissue pieces were homogenized in 3 volumes of ice-cold 0.1 M phosphate buffer (pH 7.4).
Tissue homogenates were centrifuged at 9000×g for 20 minutes at 4° C. The resulting supernatant was stored at −80° C. and is designated ‘S9’.
The S9 fraction can be further centrifuged at 100.000×g for 60 minutes (4° C.). The resulting supernatant was carefully aspirated, aliquoted and designated ‘cytosol’. The pellet was re-suspended in 0.1 M phosphate buffer (pH 7.4) in a final volume of 1 ml per 0.5 g original tissue weight and designated ‘microsomes’.
All sub-cellular fractions were aliquoted, immediately frozen in liquid nitrogen and stored at −80° C. until use.
For the samples to be tested, the incubation mixture contained PBS (0.1M), compound (5 μM), microsomes (1 mg/ml) and a NADPH-generating system (0.8 mM glucose-6-phosphate, 0.8 mM magnesium chloride and 0.8 Units of glucose-6-phosphate dehydrogenase). Control samples contained the same material but the microsomes were replaced by heat inactivated (10 minutes at 95 degrees Celsius) microsomes. Recovery of the compounds in the control samples was always 100%.
The mixtures were preincubated for 5 minutes at 37 degrees Celsius. The reaction was started at time point zero (t=0) by addition of 0.8 mM NADP and the samples were incubated for 60 minutes (t=60). The reaction was terminated by the addition of 2 volumes of DMSO. Then the samples were centrifuged for 10 minutes at 900×g and the supernatants were stored at room temperature for no longer as 24 hours before analysis. All incubations were performed in duplo. Analysis of the supernatants was performed with LC-MS analysis. Elution of the samples was performed on a Xterra MS C18 (50×4.6 mm, 5 μm, Waters, US). An Alliance 2790 (Supplier: Waters, US) HPLC system was used. Elution was with buffer A (25 mM ammoniumacetate (pH 5.2) in H2O/acetonitrile (95/5)), solvent B being acetonitrile and solvent C methanol at a flow rate of 2.4 ml/min. The gradient employed was increasing the organic phase concentration from 0% over 50% B and 50% C in 5 min up to 100% B in 1 minute in a linear fashion and organic phase concentration was kept stationary for an additional 1.5 minutes. Total injection volume of the samples was 25 μl.
A Quatro triple quadrupole mass spectrometer fitted with and ESP source was used as detector. The source and the desolvation temperature were set at 120 and 350° C. respectively and nitrogen was used as nebuliser and drying gas. Data were acquired in positive scan mode (single ion reaction). Cone voltage was set at 10 V and the dwell time was 1 second.
Metabolic stability was expressed as % metabolism of the compound after 60 minutes (equation given as example) of incubation in the presence of active microsomes (E(act))

T1 sequence (Q13639 whole entry): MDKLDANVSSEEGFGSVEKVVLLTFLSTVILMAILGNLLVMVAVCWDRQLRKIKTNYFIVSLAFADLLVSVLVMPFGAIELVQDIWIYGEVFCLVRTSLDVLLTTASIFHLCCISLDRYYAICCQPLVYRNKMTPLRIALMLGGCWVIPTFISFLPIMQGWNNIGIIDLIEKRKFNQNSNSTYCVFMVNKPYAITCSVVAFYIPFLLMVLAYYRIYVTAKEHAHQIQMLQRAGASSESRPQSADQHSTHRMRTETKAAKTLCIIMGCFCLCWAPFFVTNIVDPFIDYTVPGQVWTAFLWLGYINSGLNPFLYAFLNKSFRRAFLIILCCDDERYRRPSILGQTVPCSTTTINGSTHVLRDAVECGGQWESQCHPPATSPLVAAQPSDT

CNCCCN1CC[C@@H](CNC(=O)c2cc(NC)cc3c2OCCCO3)[C@H](O)C1 (hydrate or solvate) [compound 81]
melting point: > 130 °C

COCCCCN1CC[C@@H](CNC(=O)c2cc(N)cc3c2OCCCO3)[C@H](O)C1 [compound 1]
IC50 (h5-HT4b): 49 nM | melting point: 174 °C

CNc1cc2c(c(C(=O)NC[C@@H]3CCN(CCCO)C[C@H]3O)c1)OCCCO2 [compound 2]
IC50 (h5-HT4b): 525 nM | melting point: 150 °C

CCCCN1CC[C@@H](CNC(=O)c2cc(N)c(Cl)c3c2OCCO3)[C@H](O)C1 [compound 11]
IC50 (h5-HT4b): 5.75 nM | melting point: > 110 °C

CNc1cc2c(c(C(=O)NC[C@@H]3CCN(CCCC(=O)O)C[C@H]3O)c1)OCCO2 [compound 16]
IC50 (h5-HT4b): 617 nM | melting point: 240 °C

CNc1cc(C(=O)NC[C@@H]2CCN(CCCOC)C[C@H]2O)c2c(c1Cl)OCCO2 [compound 26]
IC50 (h5-HT4b): 19.1 nM | melting point: 106 to 108 °C

CNc1cc2c(c(C(=O)NC[C@@H]3CCN(CCOC)C[C@H]3O)c1)OCCCO2 [compound 33]
IC50 (h5-HT4b): 186 nM | melting point: 135 °C

CC(=O)CCCN1CC[C@@H](CNC(=O)c2cc(N)c(Cl)c3c2OCCO3)[C@H](O)C1 [compound 44]
IC50 (h5-HT4b): 22.9 nM | melting point: 130 °C

CS(=O)(=O)NCCN1CC[C@@H](CNC(=O)c2cc(N)c(Cl)c3c2OCCO3)[C@H](O)C1 [compound 63]
IC50 (h5-HT4b): 69.2 nM | melting point: 180 °C

Cc1nccnc1NCCN1CC[C@@H](CNC(=O)c2cc(N)c(Cl)c3c2OCCO3)[C@H](O)C1 [compound 68]
IC50 (h5-HT4b): 30.2 nM | melting point: 100 °C

CCCCN1CC[C@@H](CNC(=O)c2cc(N)cc3c2OCCO3)[C@H](O)C1 [compound 107]
IC50 (h5-HT4b): 5.5 nM | melting point: > 160 °C

CNc1cc2c(c(C(=O)NC[C@@H]3CCN(CCCOC)C[C@H]3O)c1)OCCCO2 [compound 113]
IC50 (h5-HT4b): 126 nM | melting point: 126 °C

COCCCN1CC[C@@H](CNC(=O)c2cc(C#N)cc3c2OCCCO3)[C@H](O)C1 [compound 158]
IC50 (h5-HT4b): 10.2 nM | % metabolised compound (compounds of present invention) [1]: 5%

CCCCN1CC[C@@H](CNC(=O)c2cc(C#N)cc3c2OCCCO3)[C@H](O)C1 [compound 159]
IC50 (h5-HT4b): 5.01 nM | % metabolised compound (compounds of present invention) [1]: 22%

Cc1cc2c(c(C(=O)NC[C@@H]3CCN(CCC4OCCO4)C[C@H]3O)c1)OCCCO2 [compound 163]
IC50 (h5-HT4b): 2.29 nM | % metabolised compound (compounds of present invention) [1]: 11%

N#Cc1cc2c(c(C(=O)NC[C@@H]3CCN(CCCO)C[C@H]3O)c1)OCCCO2 [compound 165]
IC50 (h5-HT4b): 15.8 nM | % metabolised compound (compounds of present invention) [1]: 1%

Cc1cc2c(c(C(=O)NC[C@@H]3CCN(CCCO)C[C@H]3O)c1)OCCCO2 [compound 168]
IC50 (h5-HT4b): 2 nM | % metabolised compound (compounds of present invention) [1]: 4%

CCNc1cc2c(c(C(=O)NC[C@@H]3CCN(CCCOC)C[C@H]3O)c1)OCCCO2 [compound 177]
IC50 (h5-HT4b): 108 nM | % metabolised compound (compounds of present invention) [1]: 4%

CCCCN1CC[C@@H](CNC(=O)c2cc(CC#N)cc3c2OCCCO3)[C@H](O)C1 [compound 183]
IC50 (h5-HT4b): 3.47 nM | % metabolised compound (compounds of present invention) [1]: 10%

COCCCCN1CC[C@@H](CNC(=O)c2cc(CC#N)cc3c2OCCCO3)[C@H](O)C1 [compound 184]
IC50 (h5-HT4b): 20 nM | % metabolised compound (compounds of present invention) [1]: 12%

COc1cc2c(c(C(=O)NC[C@@H]3CCN(CCCO)C[C@H]3O)c1)OCCCO2 [compound 185]
IC50 (h5-HT4b): 19.5 nM | % metabolised compound (compounds of present invention) [1]: 3%

Cc1cc2c(c(C(=O)NC[C@@H]3CCN(CC4CCCO4)C[C@H]3O)c1)OCCCO2 (stereo partly drawn) [compound 186]
IC50 (h5-HT4b): 5.01 nM | % metabolised compound (compounds of present invention) [1]: 0%

COc1cc2c(c(C(=O)NC[C@@H]3CCN(CCC4OCCO4)C[C@H]3O)c1)OCCCO2 [compound 187]
IC50 (h5-HT4b): 11.5 nM | % metabolised compound (compounds of present invention) [1]: 18%

Cc1cc2c(c(C(=O)NC[C@@H]3CCN(CCCCNS(C)(=O)=O)C[C@H]3O)c1)OCCCO2 [compound 193]
IC50 (h5-HT4b): 1.69 nM | melting point: 134 °C

Cc1cc2c(c(C(=O)NC[C@@H]3CCN(CCCC(N)=O)C[C@H]3O)c1)OCCCO2 [compound 197]
melting point: 136 °C

COCCCN1CC[C@@H](CNC(=O)c2cc(C)cc3c2OCCCO3)[C@H](O)C1 [compound 200]
IC50 (h5-HT4b): 0.955 nM | melting point: 108 °C | % metabolised compound (compounds of present invention) [1]: 15%

COCCCN1CC[C@@H](CNC(=O)c2cc(C#N)cc3c2OCCCO3)[C@H](O)C1 [compound 202]
IC50 (h5-HT4b): 4.37 nM | % metabolised compound (compounds of present invention) [1]: 8%

Cc1cc2c(c(C(=O)NC[C@@H]3CCN(CCOCCO)C[C@H]3O)c1)OCCCO2 [compound 211]
IC50 (h5-HT4b): 2.95 nM | % metabolised compound (compounds of present invention) [1]: 13%

Cc1cc2c(c(C(=O)NC[C@@H]3CCN(CCCCO)C[C@H]3O)c1)OCCCO2 [compound 225]
IC50 (h5-HT4b): 0.759 nM | % metabolised compound (compounds of present invention) [1]: 14%

Cc1cc2c(c(C(=O)NC[C@@H]3CCN(CCCC4(C)OCCO4)C[C@H]3O)c1)OCCCO2 [compound 227]
IC50 (h5-HT4b): 0.501 nM | % metabolised compound (compounds of present invention) [1]: 24%

Cc1cc2c(c(C(=O)NC[C@@H]3CCN(CCCCO)C[C@H]3O)c1)OCCO2 [compound 228]
IC50 (h5-HT4b): 0.398 nM | % metabolised compound (compounds of present invention) [1]: 6%

CC(=O)CCCN1CC[C@@H](CNC(=O)c2cc(C)cc3c2OCCCO3)[C@H](O)C1 [compound 229]
IC50 (h5-HT4b): 0.55 nM | % metabolised compound (compounds of present invention) [1]: 12%

Cc1cc2c(c(C(=O)NC[C@@H]3CCN(CCCC(=O)N4CCN(C)CC4)C[C@H]3O)c1)OCCCO2 [compound 238]
IC50 (h5-HT4b): 0.851 nM | melting point: > 112 °C

N#CCCCN1CC[C@@H](CNC(=O)c2cc(C#N)cc3c2OCCO3)[C@H](O)C1 [compound 246]
IC50 (h5-HT4b): 12.6 nM | % metabolised compound (compounds of present invention) [1]: 7%

COCCCN1CC[C@@H](CNC(=O)c2cc(C#N)cc3c2OCCO3)[C@H](O)C1 [compound 247]
IC50 (h5-HT4b): 3.98 nM | % metabolised compound (compounds of present invention) [1]: 12%

From patent publication US7638535B2, “4-(aminomethyl)-piperidine benzamides as 5HT4-antagonists” (Janssen Pharmaceutica N.V., priority 2003, dated 2009)
